This assay has as its system human sperm motility. The experiment in a line: Computer-assisted sperm analysis (CASA) of human sperm motility. In kind it is cell-based. The procedure: In another embodiment, a computer-assisted sperm analysis (CASA) can be used as a live cell compound screen for determining the effect of compounds on human sperm motility. Additionally, to facilitate the IC50 evaluation of compounds using different ejaculates, reducing inter-assay variation due to differences in sperm quality in different semen samples, an index of relative motility inhibition (RMI) was developed.
This is calculated as: RMI=[% motility*VSL]; percentage of motile sperm (% motility) or the percentage of progressively motile sperm (% progressive motility, RPMI) multiplied by the straight-line velocity (VSL); the average velocity measured in a straight line from the beginning to the end of a track in μm/sec.
Normalized RMI can be calculated by dividing the RMI of each experimental condition by its respective DMSO control.
Computer-assisted sperm analysis (CASA) was used as a live cell compound screen for determining the effect of compounds on human sperm motility. Computer-assisted sperm analysis (CASA) was performed using the approach taught in Mitra et al., Biology of Reproduction, Vol. 82, p 491 (2010), to determine the parameters of the control versus compound-treated spermatozoa. The parameters measured are: average pathway velocity (VAP: the average velocity of the smoothed cell path in 1 m/sec), the straight-line velocity (VSL: the average velocity measured in a straight line from the beginning to the end of track in 1 m/sec), the curvilinear velocity (VCL: the average velocity measured over the actual point-to-point track of the cell in 1 m/sec), the lateral head amplitude (ALH: amplitude of lateral head displacement in 1 m), the beat cross-frequency (BCF: frequency of sperm head crossing the sperm average path in Hz), the straightness (STR: the average value of the ratio VSL/VAP in %), and the linearity (LIN: the average value of the ratio VSL/VCL in %). The sperm motility parameters are assessed in pre-warmed (37° C.) two- or four-chambered 20-mm Leja slides, loading 5 μL or 2 μL, respectively, of the samples in each chamber and immediately using CASA. This computerized measuring device included a phase-contrast microscope (Olympus CX41), a camera, a mini-therm stage warmer, an image digitizer, and a computer to store and analyze data. The software used for data analysis is the HTR Ceros 12.3 (Hamilton-Thorne Biosciences). A range of 13 to 20 fields are scanned from each chamber. Progressive cells had to have a minimum of 25 μm/sec VAP and 80% of STR.
To facilitate the IC50 evaluation of compounds using different ejaculates, reducing inter-assay variation due to differences in sperm quality in different semen samples, an index of relative motility inhibition (RMI) was developed. This is calculated as: RMI=[% motility*VSL]; percentage of motile sperm (% motility) or the percentage of progressively motile sperm (% progressive motility, RPMI) multiplied by the straight-line velocity (VSL); the average velocity measured in a straight line from the beginning to the end of a sperm track in μm/sec. Normalized RMI (RPMI) was calculated by dividing the RMI of each experimental condition by its respective DMSO control.
The analysis of sperm motility was carried out with computer-assisted sperm analysis (CASA) (Ceros version 12.3 software; Hamilton-Thorne), using the techniques taught in Mitra et al., Biology of Reproduction, Vol. 82, p 491 (2010).

Read-outs that look alike come from different tables or passages of the source.

The EC50 is the concentration needed to bring the measured effect to its halfway point.

For the molecule `CCOC(=O)CSc1nc(=O)c(NCC(=O)OC)n[nH]1` [Compound B4, methyl N-{3-[(2-ethoxy-2-oxoethyl)sulfanyl]-5-oxo-2,5-dihydro-1,2,4-triazin-6-yl}glycinate], the IC50 (Homo sapiens, Sperm, read-out: CASA) was determined as 11.4 µM.
With `COC(=O)NNc1nc(Nc2ccc(NC(=O)OC)c(O)c2)nc(SCC(C)=O)n1` [EP012], the IC50 (Homo sapiens, Sperm, FIG. 10, RMI using % progressive motility, read-out: IC50 in terms of progressive motility) was about 3.4 µM.

B1: SEMG1: semenogelin protein that binds EPPIN and inhibits progressive motility of ejaculate spermatozoa (protein, UniProt P04279 24-462, looked up)
Semenogelin-1: QKGGSKGRLPSEFSQFPHGQKGQHYSGQKGKQQTESKGSFSIQYTYHVDANDHDQSRKSQQYDLNALHKTTKSQRHLGGSQQLLHNKQEGRDHDKSKGHFHRVVIHHKGGKAHRGTQNPSQDQGNSPSGKGISSQYSNTEERLWVHGLSKEQTSVSGAQKGRKQGGSQSSYVLQTEELVANKQQRETKNSHQNKGHYQNVVEVREEHSSKVQTSLCPAHQDKLQHGSKDIFSTQDELLVYNKNQHQTKNLNQDQQHGRKANKISYQSSSTEERRLHYGENGVQKDVSQSSIYSQTEEKAQGKSQKQITIPSQEQEHSQKANKISYQSSSTEERRLHYGENGVQKDVSQRSIYSQTEKLVAGKSQIQAPNPKQEPWHGENAKGESGQSTNREQDLLSHEQKGRHQHGSHGGLDIVIIEQEDDSDRHLAQHLNNDRNPLFT
Consider B1, for which the IC50 (FIGS. 3 and 4, read-out: IC50, CASA, RMI (relative motility)) is about 9 µM. For the same molecule, the EC50 (calculated EC50 value, read-out: EC50 for inhibiting sperm motility) is 8.8 µM.

The record behind these values is US10472334B2, “Small molecules for inhibiting male fertility” (The University of North Carolina at Chapel Hill, priority 2014, dated 2019).
